Measured values: patent US20160299130A1, “Telocinobufagin (TCINO) in the Diagnosis and Pathogenesis of Preeclampsia, Traumatic Brain Injury and Acute Respiratory Distress Syndrome” (priority 2015, published 2016)

Columns and labels:
[1] = in vitro; cited from earlier work
[2] = tested on: rodent brain contusion model; experiment: rodent brain contusion model; assay type: in vivo; settings: given 1 hour after the insult
From the text: (§1) MBG is elevated in preeclampsia and traumatic brain injury. It has been shown that the administration of the antagonist of MBG, resibufagenin (RBG) is therapeutically effective. […] RBG antagonizes MBG activity and may be an effective treatment for hypertension, ARDS, traumatic brain injury, and preeclampsia.

[3] = tested on: animal models of preeclampsia; experiment: preeclampsia in animal models; assay type: in vivo
From the text: as §1

## C[C@]12CC[C@H](O)C[C@@]1(O)CC[C@@H]1[C@@H]2CC[C@]2(C)[C@@H](c3ccc(=O)oc3)C[C@H]3O[C@]132 [MBG, marinobufagenin]
[1]
  vasoconstrictor action: acts in vitro as a vasoconstrictor

## C[C@]12CC[C@H](O)C[C@H]1CC[C@@H]1[C@@H]2CC[C@]2(C)[C@@H](c3ccc(=O)oc3)C[C@H]3O[C@]132 [RBG, resibufagenin]
[2]
  tissue injury: amelioration of tissue injury
[3]
  preeclampsia: prevents preeclampsia
